According to patent US20230065079A1, “FATTY ACID DERIVATIVE LABELED WITH POSITRON-EMITTING RADIONUCLIDE” (ASTELLAS PHARMA INC., priority 2020, published 2023):

Assay: PET test using normal cynomolgus monkey (heart contrast PET, SUV in myocardium and bone ROI)
Type: in vivo
Conditions: for SUV (myocardium) 20 minutes / SUV (myocardium) 60 minutes / SUV (myocardium) 120 minutes / SUV (myocardium) 180 minutes / SUV (bone) 20 minutes / SUV (bone) 60 minutes / SUV (bone) 120 minutes / SUV (bone) 180 minutes: male normal cynomolgus monkey, about 300 MBq i.v.; for SUV (myocardium) 20 minutes / SUV (myocardium) 60 minutes / SUV (myocardium) 120 minutes / SUV (myocardium) 180 minutes: ROI myocardium, Examples 1 case, Reference Example 15 average ± standard error of 3 cases; for SUV (myocardium) 20 minutes / SUV (bone) 20 minutes: 0 to 20 minutes after administration; for SUV (myocardium) 60 minutes / SUV (bone) 60 minutes: 20-minute section ending 60 minutes after administration; for SUV (myocardium) 120 minutes / SUV (bone) 120 minutes: 20-minute section ending 120 minutes after administration; for SUV (myocardium) 180 minutes / SUV (bone) 180 minutes: 160 to 180 minutes after administration; for SUV (bone) 20 minutes / SUV (bone) 60 minutes / SUV (bone) 120 minutes / SUV (bone) 180 minutes: ROI bone (near the spine), n.d. = target organ cannot be confirmed in the image and ROI cannot be set
Text: Solutions containing each compound prepared in Examples 1 to 7 and Reference Example 15 ([^18F]FTO) were used to perform a heart contrast PET test using normal cynomolgus monkeys.
For performing non-invasive PET imaging, in a state in which a male cynomolgus monkey was anesthetized with inhalation anesthetic isoflurane, the monkey was held at a supine body position on a PET camera SHR17000 (manufactured by Hamamatsu Photonics K.K.), the solution containing each compound (about 300 MBq) was administered from the lower extremity vein, and continuous imaging was performed for 180 minutes or more after the administration. The PET images were reconstructed by dynamic row-action maximum likelihood algorithm (DRAMA) and average images per each time section which is divided every 20 minutes from 0 minutes to 180 minutes after the administration, are obtained. Then, the region of interest (ROI) was set in the myocardium region or bone (near the spine), and the accumulation (standardized uptake value (SUV)) of each compound was calculated as {radioactivity count in the ROI (MBq/cc)/[dose (MBq)/body weight (g)]}.
The SUV values quantified by setting the ROI for the myocardium and the bone of each compound are shown in Tables 10 and 11 as SUV (myocardium) and SUV (bone). […] A case where the target organ cannot be confirmed in the image and the ROI cannot be set is denoted as n.d. The time in the Tables represents an end point of each time section, for example, “20 minutes” represents the SUV value from 0 minutes to 20 minutes after, and “180 minutes” represents the SUV value from 160 minutes to 180 minutes after the administration. In addition, Maximum Intensity Projection (MIP) PET images 60 minutes and 180 minutes after the administration of the compounds of Reference Example 15 ([…]) and Example 6 are shown in FIGS. 1A to 1D.

CCCCCCCCC1CC1CC([18F])CCSCCC(=O)O (stereo not shown) [Example 6, 3-{[3-[^18F]fluoro-4-(2-octylcyclopropyl)butyl]sulfanyl}propanoic acid]
non-specific accumulation to the bone (PET, normal cynomolgus monkey, result in words): not detected at all
SUV (myocardium) 20 minutes: 7.74
SUV (myocardium) 60 minutes: 6.24
SUV (myocardium) 120 minutes: 4.80
SUV (myocardium) 180 minutes: 3.98

CCCCCCCC/C=C/CC([18F])CCSCCC(=O)O (stereo not shown) [Example 5, 3-{[(5E)-3-[^18F]fluorotetradec-5-en-1-yl]sulfanyl}propanoic acid]
SUV (bone) 20 minutes: 1.45
SUV (bone) 60 minutes: 1.36
SUV (bone) 120 minutes: 1.28
SUV (bone) 180 minutes: 1.40
SUV (myocardium) 20 minutes: 6.84
SUV (myocardium) 60 minutes: 6.13
SUV (myocardium) 120 minutes: 5.16
SUV (myocardium) 180 minutes: 5.09

CCCCC/C=C\C/C=C\CC([18F])CCSCCC(=O)O (stereo not shown) [Example 3, 3-{[(5Z,8Z)-3-[^18F]fluorotetradeca-5,8-dien-1-yl]sulfanyl}propanoic acid]
SUV (bone) 20 minutes: 2.12
SUV (bone) 60 minutes: 2.00
SUV (bone) 120 minutes: 2.07
SUV (bone) 180 minutes: 2.08
SUV (myocardium) 20 minutes: 5.75
SUV (myocardium) 60 minutes: 3.20
SUV (myocardium) 120 minutes: 2.80
SUV (myocardium) 180 minutes: 2.41

CC/C=C\C/C=C\C/C=C\CC([18F])CCSCCC(=O)O (stereo not shown) [Example 1, 3-{[(5Z,8Z,11Z)-3-[lSF]fluorotetradeca-5,8,11-trien-1-yl]sulfanyl}propanoic acid]
SUV (bone) 20 minutes: 0.87
SUV (bone) 60 minutes: 0.69
SUV (bone) 120 minutes: 0.75
SUV (bone) 180 minutes: 0.79
SUV (myocardium) 20 minutes: 4.87
SUV (myocardium) 60 minutes: 4.13
SUV (myocardium) 120 minutes: 3.21
SUV (myocardium) 180 minutes: 2.80

CCCCCCCCCCCC([18F])CCSCCC(=O)O (stereo not shown) [Example 4, 3-[(3-[^18F]fluorotetradecyl)sulfanyl]propanoic acid]
SUV (bone) 20 minutes: 1.57
SUV (bone) 60 minutes: 1.13
SUV (bone) 120 minutes: 1.27
SUV (bone) 180 minutes: 1.51
SUV (myocardium) 20 minutes: 6.65
SUV (myocardium) 60 minutes: 5.44
SUV (myocardium) 120 minutes: 4.38
SUV (myocardium) 180 minutes: 3.92

O=C(O)CCSCCCC/C=C\CCCCCCCC[18F] [Reference Example 15, 3-{[(5Z)-14-[^18F]fluorotetradec-5-en-1-yl]sulfanyl}propanoic acid, reference compound]
SUV (bone) 20 minutes: 1.42 ± 0.10
SUV (bone) 60 minutes: 2.27 ± 0.13
SUV (bone) 120 minutes: 3.82 ± 0.60
SUV (bone) 180 minutes: 5.05 ± 0.99
SUV (myocardium) 20 minutes: 6.45 ± 0.59
SUV (myocardium) 60 minutes: 6.54 ± 0.51
SUV (myocardium) 120 minutes: 5.90 ± 0.58
SUV (myocardium) 180 minutes: 5.21 ± 0.59

CCCCCCCCC([18F])CCSCCCCC(=O)O (stereo not shown) [Example 7, 5-[(3-[^18F]fluoroundecyl)sulfanyl]pentanoic acid]
SUV (bone) 20 minutes: 1.87
SUV (bone) 60 minutes: 3.41
SUV (bone) 120 minutes: 5.11
SUV (bone) 180 minutes: 6.36
SUV (myocardium) 20 minutes: 11.6
SUV (myocardium) 60 minutes: 11.4
SUV (myocardium) 120 minutes: 10.0
SUV (myocardium) 180 minutes: 8.44

CCCCCCCCCC([18F])CCSCCC(=O)O (stereo not shown) [Example 2, 3-[(3-[^18F]fluorododecyl)sulfanyl]propanoic acid]
SUV (bone) 20 minutes: 1.40
SUV (bone) 60 minutes: 1.05
SUV (bone) 120 minutes: 1.34
SUV (bone) 180 minutes: 1.14
SUV (myocardium) 20 minutes: 7.40
SUV (myocardium) 60 minutes: 7.53
SUV (myocardium) 120 minutes: 6.74
SUV (myocardium) 180 minutes: 5.92
